The values below come from article PMC8037569, “Neuroprotective Effect of Aurantio-Obtusin, a Putative Vasopressin V1A Receptor Antagonist, on Transient Forebrain Ischemia Mice Model” (International Journal of Molecular Sciences, 2021).

“Also recorded” adds a separate entry of the source.

One data set addresses T1, hNK1R (Homo sapiens, UniProt P25103).
T1 construct: Human endogenous (U373MG cells); host or cells: U373MG
In words: GPCR functional assay: intracellular Ca2+ mobilization in U373MG cells. In kind it is cell-based. Background: Calcium flux is commonly read through the fluorescence of an indicator in the cells.

A further data set concerns the target T2, hV1AR (Homo sapiens, UniProt P37288).
T2 construct: host or cells: CHO
The data set is described as follows: GPCR functional assay: intracellular Ca2+ mobilization in transfected CHO cells. In kind it is cell-based.

Data set [1] has as its system C57BL/6 mice. In words: Transient forebrain ischemia (BCCAO) mice model, overall effect and tolerability. In kind it is in vivo. The procedure: […]. The animals were housed five per cage, allowed access to water and food ad libitum; the environment was maintained at a constant temperature (23 ± 1 °C) and humidity (60 ± 10%) under a 12-h light/dark cycle (the lights were on from 07:30 to 19:30 h). Forty mice were divided equally into four groups (sham + vehicle, n = 10; sham + drug, n = 10; bilateral common carotid artery occluded ischemia + vehicle, n = 10; bilateral common carotid artery occluded ischemia + drug, n = 10) for experiment. The treatment and maintenance of the animals were carried out in accordance with the Animal Care and Use Guidelines of Dong-A University, Korea. All in vivo experiments were performed according to the protocols approved by the Institutional Animal Care and Use Committee of Dong-A University (approved protocol numbers: DIACUC-approved-17-20) and were in accordance with the National Institutes of Health guidelines.
C57BL/6 mice were anesthetized with 2.0% isoflurane and 70% nitrous oxide in oxygen and subjected to transient forebrain ischemia. The transient forebrain ischemia was induced by bilateral common carotid artery occlusion (BCCAO) with aneurysm clips for 20 min, and the circulation was restored by removing the clips. […] The regional cerebral blood flow (rCBF) was monitored using laser Doppler flowmetry (Perimed, PF5010, JarFalla, Sweden). […]

In data set [2] the test system is C57BL/6 mice. In words: Passive avoidance test after transient forebrain ischemia (BCCAO). It is filed as in vivo, mouse. The following applies: 10 mg/kg, p.o., once daily, 1 h to 7 days after BCCAO; for Latency time in test trial of passive avoidance test: vs BCCAO group, p < 0.05. The protocol:
(§1) Male C57BL/6 mice (22–26 g, 7 weeks) were purchased from the Orient Co. Ltd., a branch of Charles River Laboratories (Seoul, Korea), and kept in the University Animal Care Unit for 1 week prior to the experiments. The animals were housed five per cage, allowed access to water and food ad libitum; the environment was maintained at a constant temperature (23 ± 1 °C) and humidity (60 ± 10%) under a 12-h light/dark cycle (the lights were on from 07:30 to 19:30 h). Forty mice were divided equally into four groups (sham + vehicle, n = 10; sham + drug, n = 10; bilateral common carotid artery occluded ischemia + vehicle, n = 10; bilateral common carotid artery occluded ischemia + drug, n = 10) for experiment. The treatment and maintenance of the animals were carried out in accordance with the Animal Care and Use Guidelines of Dong-A University, Korea. All in vivo experiments were performed according to the protocols approved by the Institutional Animal Care and Use Committee of Dong-A University (approved protocol numbers: DIACUC-approved-17-20) and were in accordance with the National Institutes of Health guidelines.
C57BL/6 mice were anesthetized with 2.0% isoflurane and 70% nitrous oxide in oxygen and subjected to transient forebrain ischemia. The transient forebrain ischemia was induced by bilateral common carotid artery occlusion (BCCAO) with aneurysm clips for 20 min, and the circulation was restored by removing the clips. Mice that received the same surgical operation without carotid artery clipping served as sham-operated controls. During the surgical procedure, the rectal temperature was maintained at 37 ± 0.5 °C with a heating pad (Biomed S.L., Barcelona, Spain). The regional cerebral blood flow (rCBF) was monitored using laser Doppler flowmetry (Perimed, PF5010, JarFalla, Sweden). […]
Passive avoidance test was conducted 1 h after the last drug administration. […] For the retention trial, the mouse was again placed in the light compartment and the time required to enter the dark compartment was recorded.

The test system of data set [3] is C57BL/6 mice. In words: Nissl staining, severity of neuronal damage after transient forebrain ischemia (BCCAO). It is filed as in vivo, mouse. The conditions noted are these: 10 mg/kg, p.o., vs BCCAO group, score 0 to 3, n = 6/group. The protocol:
as §1
C57BL/6 mice were anesthetized with 2.0% isoflurane and 70% nitrous oxide in oxygen and subjected to transient forebrain ischemia. The transient forebrain ischemia was induced by bilateral common carotid artery occlusion (BCCAO) with aneurysm clips for 20 min, and the circulation was restored by removing the clips. Mice that received the same surgical operation without carotid artery clipping served as sham-operated controls. During the surgical procedure, the rectal temperature was maintained at 37 ± 0.5 °C with a heating pad (Biomed S.L., Barcelona, Spain). The regional cerebral blood flow (rCBF) was monitored using laser Doppler flowmetry (Perimed, PF5010, JarFalla, Sweden). […] After reperfusion, the animals were placed in a warm incubator (32–33 °C) and returned to their home cages. Aurantio-obtusin, which was dissolved in 10% Tween 80 solution, was administered from 1 h to 7 days after BCCAO (10 mg/kg, p.o., once daily).
One day after the test trial of passive avoidance test, mice were anesthetized with Zoletil 50® (10 mg/kg, i.m.) and then perfused transcardially with a 100 mM phosphate buffer (pH 7.4) followed by ice-cold 4% paraformaldehyde. The brains of the mice were removed and post-fixed in a phosphate buffer (50 mM, pH 7.4) containing 4% paraformaldehyde overnight, then immersed in a 30% sucrose solution (in 50 mM phosphate-buffered saline, PBS), and stored at 4 °C until sectioned. The frozen brains were coronally sectioned on a cryostat at 30 μm and then stored in a storage solution (30% ethylene glycol, 30% glycerin, and 20 mM phosphate buffer) at 4 °C. Hippocampal sections were collected based on the mouse brain atlas.
After the sections were mounted onto gelatin-coated slides, they were stained with 0.5% cresyl violet, dehydrated through graded alcohols (70, 80, 90, and 100% × 2), placed in xylene, and covered with a coverslip after the addition of Histomount media. The number of cells in selected regions (medial CA1, mCA1; dorsal CA1, dCA1; CA2; cortex) were determined using a computerized image analysis system (Leica Microsystems AG, Wetzlar, Germany). The cells were counted in six sections by every eight sections interval (total 48 sections) per animal by a person blind to the treatment group, and the average cell count per section was computed. The degree of damage by the Nissl staining after ischemia was semiquantitatively scored from 0 to 3 (0, normal; 1, <30% of the neurons were irreversibly damaged; 2, 30–60% of the neurons were irreversibly damaged; 3, 60–100% of the neurons were irreversibly damaged).

Data set [4] has as its system angiotensin-converting enzyme (ACE). The arrangement: method as in PMID 18803227. The following applies: cited from earlier work.

A word on the inhibition: it is the drop in the measured response relative to a control, in per cent. Usually IC50 stands for the concentration that inhibits the measured activity by half.

T2 sequence (P37288 whole entry): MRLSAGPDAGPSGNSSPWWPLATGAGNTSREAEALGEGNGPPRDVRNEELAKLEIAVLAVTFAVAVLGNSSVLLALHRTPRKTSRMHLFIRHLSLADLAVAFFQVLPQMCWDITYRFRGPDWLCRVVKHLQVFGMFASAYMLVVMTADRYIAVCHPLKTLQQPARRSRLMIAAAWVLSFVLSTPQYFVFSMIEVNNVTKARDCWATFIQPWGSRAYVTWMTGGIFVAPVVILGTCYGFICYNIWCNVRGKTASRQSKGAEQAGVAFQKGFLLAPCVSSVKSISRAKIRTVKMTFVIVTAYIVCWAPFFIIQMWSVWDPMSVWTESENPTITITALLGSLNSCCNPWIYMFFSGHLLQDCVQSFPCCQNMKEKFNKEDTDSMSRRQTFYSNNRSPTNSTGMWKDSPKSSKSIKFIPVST
T1 sequence (P25103 whole entry): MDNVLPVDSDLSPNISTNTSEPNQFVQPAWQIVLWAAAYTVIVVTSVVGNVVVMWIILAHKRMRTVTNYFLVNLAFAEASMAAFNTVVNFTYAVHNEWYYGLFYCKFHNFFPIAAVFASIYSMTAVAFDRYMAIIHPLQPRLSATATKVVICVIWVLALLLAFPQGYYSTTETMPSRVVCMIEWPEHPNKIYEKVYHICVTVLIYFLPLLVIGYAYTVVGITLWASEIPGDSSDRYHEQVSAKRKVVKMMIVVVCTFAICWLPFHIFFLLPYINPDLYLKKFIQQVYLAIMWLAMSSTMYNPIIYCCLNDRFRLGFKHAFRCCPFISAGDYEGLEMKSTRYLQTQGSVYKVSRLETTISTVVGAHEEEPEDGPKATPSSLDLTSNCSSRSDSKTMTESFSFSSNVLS

Consider `COc1c(O)cc2c(c1O)C(=O)c1c(cc(C)c(O)c1OC)C2=O` [Aurantio-obtusin, 1,3,7-trihydroxy-2,8-dimethoxy-6-methylanthracene-9,10-dione], for which the “% Stimulation (agonist effect) of control agonist response, NK1 (h)” value at hNK1R (100 µM test compound, control response to 30 nM [Sar9, Met(O2)11]-SP) is given as −6.40 ± 0.00%. Besides, the inhibition at 100 µM on hNK1R (U373 MG, read-out: % Inhibition (antagonist effect) of control agonist response, NK1 (h) (converted)) was 47.6%. At hV1AR (100 µM test compound, control response to 1 μM AVP), the “% Stimulation (agonist effect) of control agonist response, V1A (h)” value is listed as −33.20 ± 2.69%. For the same molecule, the inhibition at 100 µM on hV1AR (CHO, 100 µM test compound, control response to 10 nM AVP, read-out: % Inhibition (antagonist effect) of control agonist response, V1A (h) (converted)) was 71.8%. In addition, on hV1AR (concentrations up to 100 µM, control response to 10 nM AVP, read-out: V1AR antagonist effect IC50), the half-inhibitory concentration (IC50) was found to be 67.7 ± 2.41 µM. Further, the “Toxicity of treatment alone (sham + drug)” value in the data set with C57BL/6 mice [1] (10 mg/kg, p.o., once daily, compared to sham group) was “no toxicity”. The “Effect in BCCAO model, pilot study” value with C57BL/6 mice [1] (1, 5 and 10 mg/kg tested, result for 10 mg/kg) was “effective”. For the same molecule, the “Latency time in training trial of passive avoidance test” value in the data set with C57BL/6 mice [2] (n = 8/group) is recorded as “no significant differences”. For the same molecule, the “Latency time in test trial of passive avoidance test” value in the data set on C57BL/6 mice [2] is listed as “significantly attenuated the reduction of latency time”. In the data set with C57BL/6 mice [2] (listed as aurantio-obtusin), the “Latency time in test trial of passive avoidance test” value is “attenuated the latency time; also recorded: attenuated that reduction significantly”. In addition, in the data set with C57BL/6 mice [3], the “Severity of neuronal damage in CA2” value was “not in CA2 region”, the “Severity of neuronal damage in cortex” value is “significantly reduced the severity of damage”, the “Severity of neuronal damage in dCA1” value is recorded as “significantly reduced the severity of damage” and the “Severity of neuronal damage in mCA1” value is recorded as “significantly reduced the severity of damage”. Besides, in the data set with C57BL/6 mice [3] (listed as Aurnatio-obtusin), the “Severity of neuronal damage in cortex” value was “significantly reduced the severity”, the “Severity of neuronal damage in dCA1” value is on record as “significantly reduced the severity” and the “Severity of neuronal damage in mCA1” value is given as “significantly reduced the severity”. In addition, the “Inhibition of ACE activity” value in data set [4] is listed as “no activity”.
